From US11512042B2, “Enamine compounds for absorbance of electromagnetic energy” (Commonwealth Scientific and Industrial Research Organisation, priority 2015, dated 2022)
Values joined by “and” are separate entries in the source; they are usually repeats but may differ in a detail not shown here. Identical values can stand only once. “Also recorded” adds a separate entry of the source.

How the values were obtained:
Type in all cases: physicochemical
[1] = UV absorbance spectrum in solution (λmax, λcrit, extinction coefficients); conditions: for λcrit: critical wavelength; for E (1%, 1 cm): mass extinction coefficient
Summary of the method: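 Spectra taken on 0.001% solutions in methanol, 10 mm path. Breakthrough is the wavelength where transmittance rises above 1%; steepness is the nm span over which transmittance goes from 1 to 80%.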

[2] = % transmission spectrum of 0.1% solution (breakthrough, steepness); conditions: for Breakthrough (1% T at 0.1%): value in nm where transmittance increases beyond 1%, 0.1% solution; for Steepness: distance in nm over which transmittance increases from 1 to 80%
Summary of the method: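 Transmission was recorded for 0.1% methanol solutions in a 2 mm cuvette. Breakthrough is the wavelength (nm) at which transmittance exceeds 1%; steepness is the nm span over which transmittance rises from 1 to 80%. Some values are averages of multiple measurements.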

[3] = Solubility in the photostability test solution; conditions: printed in the photostability (or steepness) column
Excerpt: The properties of these compounds are shown in table 9 with comparator compounds. […] In both cases low solubility meant that photostability could not be measured. This would not preclude use of the compounds in many applications where solubility is not at issue.
In one embodiment, the compounds may provide for improved solubility or stability in standard compositions, including sunscreen compositions. Such solubility may be measured by generating, for example, a 3% solution of the relevant compound in 2:1:1 EtOH:capric/caprylic triglyceride:C12-C15 alkyl benzoate.
1 mL of a 3% solution of the test compound (30 mg of test compound in 1 mL solvent) was prepared in a solvent mix made up of 50% EtOH and 25% capric/caprylic triglyceride and 25% C12-C15 alkyl benzoate. 50 μL of this solution (containing 1.5 mg of test compound) was added carefully to the centre of a glass microscope slide and the volatile components left to evaporate in the dark for at least 3 hours to give a liquid film. The prepared films were then exposed for 1 hour to an Eimac 150 W xenon arc lamp filtered through Pyrex (15 Amp supply current, samples 19 cm from the lamp) previously allowed to warm up for 15 minutes prior to sample exposure. […] One hour's exposure represented a calculated radiation dose (using meter) of approximately 100 MED.

[4] = Lens casting in CR-39 lens formulation; conditions: benzoyl peroxide initiator, cured 70° C. 18 hours, 0.1 wt %
Protocol: (§1) Two lens formulations were used. The first (CR-39) was composed of Di(ethylene glycol) bis(allylcarbonate) with 3% wt benzoyl peroxide as initiator. The second lens formulation (NK) was made up of 4 parts NK Ester BPE 100N (Ethoxylated Bisphenol A dimethacrylate) to 1 part NK Ester 9G (PEG 400 dimethacrylate) with 0.4 wt % AIBN as initiator.
(§2) Once the glue had dried the lens matrix (3 g of the lens matrix was treated with 3 mg of absorber, 0.1 wt % and stirred until dissolution complete. 3 g of the matrix was sufficient to prepare 3-4 lenses) was added via pipette to the interior until a convex meniscus was formed at the top of the O-ring. The mixture was then left to settle for 15 minutes during which time any bubbles formed were dispersed. A second microscope slide was then slowly rolled on top of the first to form a seal and expel any air. Taking care to maintain pressure the lens mould was then clamped at the sides with two “Bulldog” clips and cured in an oven at 70° C. for 18 hours. Once the curing process was complete the two microscope slides were separated and the lens removed from the O-ring before washing with acetone and drying/polishing with a soft tissue. The lenses thus formed were approximately 2 mm thick and 15 mm in diameter.
Of particular interest are compounds 163 and 164 which show an increase in λmax on constraining only the nitrogen substituent in a ring i.e. not the double bond. […] Additionally the dimethyl analogue 213 (structure in table 14) was also evaluated.

[5] = PMMA film in QUV Weatherometer; conditions: type A bulbs, 70° C. 8 hours then dark humid 50° C. 4 h
Protocol: In order to gauge longer term photostability, the PMMA film samples were evaluated in a QUV Weatherometer using type A bulbs with solar irradiance at 70° C. for 8 hours followed by heating in the dark under a humid atmosphere at 50° C. for 4 h. The film was then sandwiched between 2 glass slides to prevent deformation and irradiated. The samples were evaluated by a visual comparison and measurement of transmittance spectra. […] This clearly indicates the suitability of compounds of the first aspect to incorporation into polymeric matrices and films. The relevant transmission spectra are shown in FIG. 11 (142), FIG. 12 (143), FIG. 13 (164), FIG. 14 (213) and FIG. 15 (215) wherein in all of these figures the lower plateau line represents the result following radiation and the upper line prior to irradiation.

[6] = Photostability protocol: thin film irradiated with xenon arc lamp; conditions: 1 hour xenon arc lamp; for Photostability: ratio of absorbance at λmax irradiated vs unirradiated, ^a = average of multiple measurements
Summary of the method: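 A 3% solution in EtOH/triglyceride/alkyl benzoate is dried on glass slides into a liquid film of 1.5 mg compound. Films are irradiated 1 h with a Pyrex-filtered 150 W xenon arc lamp (about 100 MED, below 30° C). Washings are read by UV; stability is absorbance at λmax relative to unirradiated film.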

[7] = Lens casting in NK ester lens formulation; conditions: AIBN initiator, cured 70° C. 18 hours, 0.1 wt %
Protocol: as §1, §2

[8] = Stability to epoxy resin curing; conditions: 2 part epoxy resin, transmittance vs solution
Protocol: In order to test the stability of a number of compounds to a typical epoxy resin curing system, epoxy adhesive packs were obtained (Parfix 5 minute everyday epoxy adhesive, 24 ml). This is a standard 2 part epoxy resin with the first part composed of a viscous Bisphenol-A/epichlorohydrin polymeric reaction product. The second part is a viscous 30% solution of an aminophenol hardener, T (shown below). Epoxy resins cured by 1° and 2° amines are also available.
To test the stability of the compounds to the curing conditions, a 0.1% wt (1 mg absorber per gram of resin) was prepared and added to a mould comprising a 2 mm thick viton o-ring super glued to a microscope slide. […] Due to difficulties in solubilising the compounds in the mixed resin/hardener in the limited working time as the resin cured; the two barrels of the application syringe were separated with a scalpel allowing the separate application of both parts of the resin system.
This was then mixed thoroughly and immediately added to the moulds as described above. […]

[9] = Irradiation in polyurethane varnish coating; conditions: 1% in polyurethane varnish, xenon arc lamp two hours
Protocol: As a model for the use of the compounds of the first aspect in coatings, a 1% solution by mass (10 mg in 1 g) of the compounds in British Paints oil based polyurethane varnish was applied to the surface of a microscope slide and left to dry overnight in the dark. The transmittance of the slide was then measured before irradiating the sample with a xenon arc lamp (as for the solution phase thin film samples) for two hours and the transmittance re-measured. Slight variations in the thickness of the films obtained would be sufficient to result in variations in transmittance so it was judged to be of equal importance to observe the slope of the samples before and after irradiation as any change here was likely an indicator of decomposition. The varnish itself blocks the transmission of light up to approximately 350-370 nm.

[10] = Irradiation of PMMA thin film (xenon lamp, sunlight); conditions: irradiated 1 h, 2 h and 3 weeks direct sunlight
Protocol: In order to determine the stability of the compounds in a polymer matrix, thin films were cast in Poly(methylmethacrylate) (PMMA). This was achieved by adding the compound in question to a solution of PMMA (Mw 240,000) in DCM and spreading the resulting solution onto a glass slide before evaporation over night to give the desired film. The film was then sandwiched between 2 glass slides to prevent deformation and irradiated. […] In this way films of compound 164 were prepared. The films were irradiated for 1 h, 2 h and also left outside exposed to direct sunlight and atmospheric conditions for 3 weeks (Melbourne summer time).

[11] = molar extinction coefficient, in M-1 cm-1 (unit assumed)

Structure (SMILES)	λmax [1]	λcrit [1]	E (1%, 1 cm) [1]	ε [1, 11]	Breakthrough (1% T at 0.1%) [2]	Solubility for photostability measurement [3]	Steepness [2]	Photostability (% remains) [6]	Photostability [6]	Stability to lens casting conditions [7]	ε ([1]; UV, at λmax)	Stability to epoxy resin curing [8]	Stability to irradiation in varnish [9]	Stability in PMMA thin film [10]	Stability to lens casting conditions [4]	Longer term photostability in PMMA film [5]
CC1(C)CN(/C=C(\C(=O)C(F)(F)F)c2ccccc2)c2ccccc21 [Compound 213]	366 nm	389 nm	860	29690	413 nm		22 nm								stable enough for such incorporation; also recorded: good stability to the lens curing conditions	little sign of decomposition after irradiation
CCCCC(CC)COC(=O)c1ccc2c(c1)CCN2/C=C(\C(=O)C(F)(F)F)c1ccccc1 (stereo not shown) [Compound 215]	374 nm	391 nm	1067	50515				85%								little sign of decomposition after irradiation
CCN(/C=C(\C(=O)C(F)(F)F)c1ccccc1)c1ccccc1 [Compound 142, 4-(ethyl(phenyl)amino)-1,1,1-trifluoro-3-phenylbut-3-en-2-one]								91% and 99%	99%	very little if any decomposition					stable enough for such incorporation; also recorded: very little if any decomposition	little sign of decomposition after irradiation
O=C(/C(=C\N(c1ccccc1)c1ccccc1)c1ccccc1)C(F)(F)F [Compound 143, 4-(diphenylamino)-1,1,1-trifluoro-3-phenylbut-3-en-2-one]	351 nm	381 nm	760	27893	402 nm	Not soluble	32 nm			very little if any decomposition	27893 M⁻¹ cm⁻¹	little or no decomposition occurred			stable enough for such incorporation; also recorded: very little if any decomposition	little sign of decomposition after irradiation
O=C(/C(=C\N1CCc2ccccc21)c1ccccc1)C(F)(F)F [Compound 164]	367 nm	389 nm	1127	35741	418 nm		20 nm	99%	99%			remain intact after curing	largely unscathed by the irradiation	without compound deterioration	stable enough for such incorporation; also recorded: good stability to the lens curing conditions	little sign of decomposition after irradiation
CN(C)/C=C(/C(=O)c1ccccc1)c1ccccc1 [Compound 240]	313 nm	361 nm	776	19475	379 nm		40 nm		10%							
CCCCN(/C=C(/C(=O)C(F)(F)F)c1ccccc1)c1ccccc1 [Compound 234]	330 nm	365 nm	704	24440	381 nm		31 nm		87%							

The next lines start with results.

λmax [1]	λcrit [1]	E (1%, 1 cm) [1]	ε [1, 11]	Breakthrough (1% T at 0.1%) [2]	Solubility for photostability measurement [3]	Steepness [2]	Photostability (% remains) [6]	Photostability [6]	Stability to lens casting conditions [7]	ε ([1]; UV, at λmax)	Stability to epoxy resin curing [8]	Stability to irradiation in varnish [9]	Stability in PMMA thin film [10]	Structure (SMILES)	Stability to lens casting conditions [4]	Longer term photostability in PMMA film [5]
361 nm	361 nm	1089	31385	405 nm	Not soluble									N#CCC(=O)/C(=C\N1CCc2ccccc21)c1ccccc1 [Compound 249]		
368 nm	386 nm	1304	58842	412 nm		32 nm		32%						COC(=O)c1ccc2c(c1)CCN2/C=C(/C(=O)C(=O)OC(C)(C)C(=O)OC)c1ccccc1 [Compound 279]		
374 nm	391 nm	796	38378	431 nm		41 nm		79%						CCCCC(CC)COC(=O)c1ccc2c(c1)CCN2/C=C(/C(=O)c1ccncc1)c1ccccc1 (stereo not shown) [Compound 308]		
367 nm	384 nm	1189	54826	400 nm		16 nm		81% and 83%						CCCCC(CC)COC(=O)c1ccc2c(c1)CCN2C=C(C(=O)C(C)(C)C)c1ccccc1 (stereo not shown) [Compound 300]		
